How the values were obtained:
wheat = test: Pre-emergence test (crop tolerance); format: in vivo; conditions: application rates between 250 and 750 g/ha, scored after three weeks vs untreated control
Method: (§1) Solvent: 5 parts by weight of acetone
(§2) Emulsifier: 1 part by weight of alkylaryl polyglycol ether
(§3) To prepare a suitable preparation of active compound, 1 part by weight of active compound is mixed with the stated amount of solvent, the stated amount of emulsifier is added, and the concentrate is diluted with water to the desired concentration.
(§4) Seeds of the test plants are sown in normal soil. After approx. 24 hours, the soil is sprayed with the preparation of active compound in such a way that the desired amounts of active compound are in each case applied per unit area. The concentration of the spray mixture is chosen in such a way that the desired amounts of active compound are in each case applied in 1,000 liters of water/ha.
(§5) After three weeks, the degree of damage to the plants is scored in % damage in comparison with the development of the untreated control.

Abutilon = test: Post-emergence test; format: in vivo; conditions: application rates of 15-750 g/ha, scored after three weeks vs untreated control
Method: as §1, §2, §3
(§6) Test plants which have a height of 5-15 cm are sprayed with the preparation of active compound in such a way that the desired amounts of active compound are in each case applied per unit area. The concentration of the spray mixture is chosen in such a way that the amounts of active compound desired in each case are applied in 1,000 liters of water/ha.
as §5

Galium = test: Post-emergence test; format: in vivo; conditions: application rates of 15-750 g/ha, scored after three weeks vs untreated control
Method: as §1, §2, §3, §6, §5

Sinapis = test: Post-emergence test; format: in vivo; conditions: application rates of 15-750 g/ha, scored after three weeks vs untreated control
Method: as §1, §2, §3, §6, §5

Avena fatua = test: Pre-emergence test; format: in vivo; conditions: application rates between 250 and 750 g/ha, scored after three weeks vs untreated control, 0% = no action, 100% = total destruction
Method: as §1, §2, §3, §4, §5

Solanum = test: Pre-emergence test; format: in vivo; conditions: application rates between 250 and 750 g/ha, scored after three weeks vs untreated control
Method: as §1, §2, §3, §4, §5

Lolium = test: Pre-emergence test; format: in vivo; conditions: application rates between 250 and 750 g/ha, scored after three weeks vs untreated control
Method: as §1, §2, §3, §4, §5

Matricaria = test: Pre-emergence test; format: in vivo; conditions: application rates between 250 and 750 g/ha, scored after three weeks vs untreated control
Method: as §1, §2, §3, §4, §5

| SMILES | degree of damage to the plants, wheat (crop plant, tolerated well) (wheat) [%] | degree of damage to the plants, Abutilon (Abutilon) [%] | degree of damage to the plants, Galium (Galium) [%] | degree of damage to the plants, Sinapis (Sinapis) [%] | degree of damage to the plants, Avena fatua (Avena fatua) [%] | degree of damage to the plants, Solanum (Solanum) [%] | degree of damage to the plants, Lolium (Lolium) [%] | degree of damage to the plants, Matricaria (Matricaria) [%] | melting point [°C] |
| --- | --- | --- | --- | --- | --- | --- | --- | --- | --- |
| Cn1c(C(F)(F)F)cc(=O)n(-c2ccc(Cl)cc2NC(=O)C(C)(C)C)c1=O [Example 18] | 0 | 100 | 100 | 100 | 100 | 100 | 100 | 100 | – |
| CCNC(=S)Nc1ccccc1-n1c(=O)n(C2CC2)c(=O)n1C [Example 102] | 0 | 100 | 100 | 100 | 100 | 100 | 100 | 100 | – |
| CC(C)(C)C(=O)Nc1ccc(Cl)cc1-n1c(=O)cc(C(F)(F)F)[nH]c1=O | – | – | – | – | – | – | – | – | 276 |
| CC(C)C(=O)Nc1cc(Cl)ccc1-n1c(=O)cc(C(F)(F)F)n(C)c1=O [Example 24] | 0 | 100 | 100 | 100 | 100 | 100 | 100 | 100 | – |
| CC(=O)Nc1cc(Cl)ccc1-n1c(=O)cc(C(F)(F)F)n(C)c1=O [Example 20] | 0 | 100 | 100 | 100 | 100 | 100 | 100 | 100 | – |
| Cn1c(C(F)(F)F)cc(=O)n(-c2ccc(Cl)cc2NC(=O)C2CC2)c1=O [Example 19] | 0 | 100 | 100 | 100 | 100 | 100 | 100 | 100 | – |
| Cn1c(C(F)(F)F)cc(=O)n(-c2cc(Cl)ccc2NC(=O)C(C)(C)C)c1=O | – | – | – | – | – | – | – | – | 267 |
| Cn1c(C(F)(F)F)cc(=O)n(-c2ccc(Cl)cc2NC(=O)c2ccc(Cl)cc2)c1=O [Example 23] | 0 | 100 | 100 | 100 | 100 | 100 | 100 | 100 | – |
